Measurements reported in ChEMBL document CHEMBL1201862, “PubChem BioAssay data set” (2004).
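Growth conditions: 96-well plates. Treatment: test compound, 48 hours, 5 concentrations. Analysis: linear interpolation between bracketing concentrations; unreached endpoints set to highest concentration. At the GI50, growth is halved.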 Calls of active or inactive are those of the source. Cut-off read from the data, not from the text of the source: active = GI50 up to about 1.1 µM and inactive = higher.

What was measured:
Assay in all cases: inhibition of tumour cell growth, NCI panel, 48 h
A549 = tested on: A549
ACHN = tested on: ACHN
CAKI-1 = tested on: CAKI-1
CCRF-CEM = tested on: CCRF-CEM
COLO 205 = tested on: COLO 205
DLD-1 = tested on: DLD-1
DMS-114 = tested on: DMS-114
DMS-273 = tested on: DMS-273
EKVX = tested on: EKVX
HCC 2998 = tested on: HCC 2998
HCT-15 = tested on: HCT-15
HL-60 = tested on: HL-60
HOP-18 = tested on: HOP-18
HT-29 = tested on: HT-29
IGROV-1 = tested on: IGROV-1
K562 = tested on: K562
KM-20L2 = tested on: KM-20L2
KM12 = tested on: KM12
LOX IMVI = tested on: LOX IMVI
LXFL 529 = tested on: LXFL 529
M14 = tested on: M14
MOLT-4 = tested on: MOLT-4
Malme-3M = tested on: Malme-3M
NCI-H23 = tested on: NCI-H23
NCI-H522 = tested on: NCI-H522
OVCAR-4 = tested on: OVCAR-4
OVCAR-5 = tested on: OVCAR-5
OVCAR-8 = tested on: OVCAR-8
RPMI-8226 = tested on: RPMI-8226
RXF 393 = tested on: RXF 393
RXF 631 = tested on: RXF 631
SF-268 = tested on: SF-268
SF-295 = tested on: SF-295
SF-539 = tested on: SF-539
SK-MEL-28 = tested on: SK-MEL-28
SK-MEL-2 = tested on: SK-MEL-2
SK-MEL-5 = tested on: SK-MEL-5
SK-OV-3 = tested on: SK-OV-3
SN12C = tested on: SN12C
SNB-19 = tested on: SNB-19
SNB-75 = tested on: SNB-75
SNB-78 = tested on: SNB-78
SW-620 = tested on: SW-620
TK-10 = tested on: TK-10
U-251 = tested on: U-251
UACC-257 = tested on: UACC-257
UACC-62 = tested on: UACC-62
UO-31 = tested on: UO-31
786-0 = tested on: 786-0
A498 = tested on: A498
HCT-116 = tested on: HCT-116
HOP-62 = tested on: HOP-62
HOP-92 = tested on: HOP-92
M19-MEL = tested on: M19-MEL
NCI-H226 = tested on: NCI-H226
NCI-H460 = tested on: NCI-H460
OVCAR-3 = tested on: OVCAR-3
SR = tested on: SR
XF498 = tested on: XF498

`c1ccc2cc3n[se]nc3cc2c1` was tested, and the GI50 (A549) was 52700 nM (inactive), the GI50 (ACHN) was > 100000 nM (inactive) and the GI50 (CAKI-1) was > 100000 nM (inactive). The GI50 (CCRF-CEM) was 32500 nM (inactive), the GI50 (COLO 205) was > 100000 nM (inactive) and the GI50 (DLD-1) was 62400 nM (inactive). For the same molecule, the GI50 (DMS-114) was > 100000 nM (inactive), the GI50 (DMS-273) was > 100000 nM (inactive) and the GI50 (EKVX) was > 100000 nM (inactive). The GI50 (HCC 2998) was 38900 nM (inactive), the GI50 (HCT-15) was greater than 100000 nM and the GI50 (HL-60) was > 100000 nM (inactive). The GI50 (HOP-18) was < 10 nM (active), the GI50 (HT-29) was > 100000 nM (inactive) and the GI50 (IGROV-1) was 48800 nM (inactive). The GI50 (K562) was > 100000 nM (inactive), the GI50 (KM-20L2) was > 100000 nM (inactive) and the GI50 (KM12) was > 100000 nM (inactive). For the same molecule, the GI50 (LOX IMVI) was > 100000 nM (inactive), the GI50 (LXFL 529) was > 100000 nM (inactive) and the GI50 (M14) was > 100000 nM (inactive). For the same molecule, the GI50 (MOLT-4) was 75500 nM (inactive), the GI50 (Malme-3M) was > 100000 nM (inactive) and the GI50 (NCI-H23) was 39700 nM (inactive). For the same molecule, the GI50 (NCI-H522) was > 100000 nM (inactive), the GI50 (OVCAR-4) was > 100000 nM (inactive) and the GI50 (OVCAR-5) was > 100000 nM (inactive). The GI50 (OVCAR-8) was > 100000 nM (inactive), the GI50 (RPMI-8226) was > 100000 nM (inactive) and the GI50 (RXF 393) was > 100000 nM (inactive). For the same molecule, the GI50 (RXF 631) was 10400 nM (inactive), the GI50 (SF-268) was > 100000 nM (inactive) and the GI50 (SF-295) was 39400 nM (inactive). The GI50 (SF-539) was 37600 nM (inactive), the GI50 (SK-MEL-28) was > 100000 nM (inactive) and the GI50 (SK-MEL-2) was > 100000 nM (inactive). For the same molecule, the GI50 (SK-MEL-5) was 68100 nM (inactive), the GI50 (SK-OV-3) was > 100000 nM (inactive) and the GI50 (SN12C) was 91800 nM (inactive). The GI50 (SNB-19) was 81100 nM (inactive), the GI50 (SNB-75) was 56900 nM (inactive) and the GI50 (SNB-78) was > 100000 nM (inactive). For the same molecule, the GI50 (SW-620) was > 100000 nM (inactive), the GI50 (TK-10) was > 100000 nM (inactive) and the GI50 (U-251) was > 100000 nM (inactive). The GI50 (UACC-257) was > 100000 nM (inactive), the GI50 (UACC-62) was > 100000 nM (inactive) and the GI50 (UO-31) was 55800 nM (inactive).

`COc1cc2c(c(OC)c1OC)-c1ccc(SC)c(=O)cc1[C@@H](NC(=O)c1ccc([N+](=O)[O-])cc1)CC2` was tested, and the GI50 (786-0) was 5.28 nM (active), the GI50 (A498) was 6.32 nM (active) and the GI50 (A549) was 25 nM (active). The GI50 (ACHN) was 5.55 nM (active), the GI50 (CCRF-CEM) was < 2.5 nM (active) and the GI50 (COLO 205) was < 2.5 nM (active). For the same molecule, the GI50 (DLD-1) was < 2.5 nM (active), the GI50 (DMS-114) was < 2.5 nM (active) and the GI50 (DMS-273) was < 2.5 nM (active). For the same molecule, the GI50 (EKVX) was < 2.5 nM (active), the GI50 (HCC 2998) was 5.88 nM (active) and the GI50 (HCT-116) was < 2.5 nM (active). For the same molecule, the GI50 (HCT-15) was 8.43 nM, the GI50 (HL-60) was < 2.5 nM (active) and the GI50 (HOP-62) was < 2.5 nM (active). The GI50 (HOP-92) was < 2.5 nM (active), the GI50 (HT-29) was 100 nM (active) and the GI50 (IGROV-1) was 12.6 nM (active). The GI50 (K562) was < 2.5 nM (active), the GI50 (KM-20L2) was < 2.5 nM (active) and the GI50 (KM12) was < 2.5 nM (active). The GI50 (LOX IMVI) was < 2.5 nM (active), the GI50 (M14) was < 2.5 nM (active) and the GI50 (M19-MEL) was 19.5 nM (active). The GI50 (MOLT-4) was 2.89 nM (active), the GI50 (Malme-3M) was < 2.5 nM (active) and the GI50 (NCI-H226) was < 10 nM (active). For the same molecule, the GI50 (NCI-H23) was < 10 nM (active), the GI50 (NCI-H460) was 3.27 nM (active) and the GI50 (OVCAR-3) was < 2.5 nM (active). The GI50 (OVCAR-4) was 123 nM (active), the GI50 (OVCAR-5) was 4.85 nM (active) and the GI50 (RPMI-8226) was < 2.5 nM (active). The GI50 (RXF 393) was < 2.5 nM (active), the GI50 (RXF 631) was < 10 nM (active) and the GI50 (SF-268) was 15.4 nM (active). For the same molecule, the GI50 (SF-295) was < 2.5 nM (active), the GI50 (SF-539) was < 2.5 nM (active) and the GI50 (SK-MEL-28) was 4450 nM (inactive). The GI50 (SK-MEL-2) was 4.5 nM (active), the GI50 (SK-MEL-5) was < 2.5 nM (active) and the GI50 (SK-OV-3) was < 2.5 nM (active). The GI50 (SN12C) was 9.57 nM (active), the GI50 (SNB-75) was 10700 nM (inactive) and the GI50 (SNB-78) was < 2.5 nM (active). The GI50 (SR) was 5.22 nM (active), the GI50 (SW-620) was < 2.5 nM (active) and the GI50 (TK-10) was 3130 nM (inactive). For the same molecule, the GI50 (U-251) was 25 nM (active), the GI50 (UACC-257) was < 2.5 nM (active) and the GI50 (UACC-62) was 8.53 nM (active). For the same molecule, the GI50 (UO-31) was 5.79 nM (active) and the GI50 (XF498) was 7.46 nM (active).
